Data from ChEMBL document CHEMBL1201862, “PubChem BioAssay data set” (2004).
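Five concentrations, 48 hours, 96-well plates. Here, GI50 denotes the concentration required for 50% inhibition of growth.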 Activity calls are given as the source filed them. Cut-off read from the data, not from the text of the source: active = GI50 up to about 1.1 µM and inactive = higher.

What was measured:
Test in all cases: NCI tumour cell line growth inhibition, 48 h
[1] = system: HL-60
[2] = system: HOP-18
[3] = system: RXF 631
[4] = system: BT-549
[5] = system: DU-145
[6] = system: MDA-MB-435
[7] = system: MDA-N
[8] = system: T47D
[9] = system: DMS-273

Structure (SMILES) | GI50 [1] | GI50 [2] | GI50 [3] | GI50 [4] | GI50 [5] | GI50 [6] | GI50 [7] | GI50 [8] | GI50 [9]
Cc1c(OC(C)C(=O)O)ccc2c(-c3ccccc3)cc(=O)oc12 (stereo not drawn) | > 100 µM (inactive) | > 100 µM (inactive) | > 100 µM (inactive) | – | – | – | – | – | –
C=CC(=O)N1C/C(=C\c2ccc(OC)cc2)C(=O)/C(=C/c2ccc(OC)cc2)C1 | 0.69 µM (active) | – | – | 1.71 µM (inactive) | 3.91 µM (inactive) | 2.06 µM (inactive) | 1.62 µM (inactive) | 6.56 µM (inactive) | –
CC(C)C(=O)Cc1ccc2ccccc2n1 | > 100 µM (inactive) | – | – | > 100 µM (inactive) | > 100 µM (inactive) | 70 µM (inactive) | 55.2 µM (inactive) | > 100 µM (inactive) | –
Oc1ccnc(SCc2ccc(Cl)cc2)n1 | – | – | – | > 100 µM (inactive) | > 100 µM (inactive) | > 100 µM (inactive) | > 100 µM (inactive) | > 100 µM (inactive) | –
Nc1nc(O)c2[nH]cnc2[n+]1[O-] | > 100 µM (inactive) | – | – | > 100 µM (inactive) | > 100 µM (inactive) | – | > 100 µM (inactive) | > 100 µM (inactive) | –
COc1cccc(C2c3cc4c(cc3OC(N3CCOCC3)C2C)OCO4)c1 (stereo not drawn) | – | – | – | 3.39 µM (inactive) | 31.8 µM (inactive) | – | 3.07 µM (inactive) | 27.5 µM (inactive) | –
COc1ccc(-c2cs/c(=N\c3ccccc3)n2CCCN(C)C)cc1 | 5.58 µM (inactive) | – | – | 19.2 µM (inactive) | – | 18.4 µM (inactive) | 30.6 µM (inactive) | – | –
CCN(CC)CCO[Si](OCCN(CC)CC)(OCCN(CC)CC)OCCN(CC)CC | – | – | > 100 µM (inactive) | – | – | – | – | – | > 100 µM (inactive)
Cc1cc(C)nc(NS(=O)(=O)c2ccc(NC(=O)c3cccc4c(Nc5ccc(S(=O)(=O)Nc6cc(C)on6)cc5)c5ccccc5nc34)cc2)n1 | 26.5 µM (inactive) | – | – | – | – | – | – | – | –
O=C(Nc1ccc(Cl)c(Cl)c1)C(=O)C(C(=O)c1ccccc1F)C1OC(=O)c2ccccc21 (stereo not drawn) | 14.1 µM (inactive) | – | – | – | – | – | – | – | 13.2 µM (inactive)
CC1(Br)S(=O)(=O)OCCOS1(=O)=O | > 100 µM (inactive) | – | – | – | – | – | – | – | > 100 µM (inactive)
NC(=O)OCC(COc1ccc(Cl)cc1)OC(=O)c1cc([N+](=O)[O-])cc([N+](=O)[O-])c1 (stereo not drawn) | > 100 µM (inactive) | > 100 µM (inactive) | > 100 µM (inactive) | – | – | – | – | – | > 100 µM (inactive)
ON(Cc1ccccc1)C(=S)c1ccccc1 | 0.927 µM (active) | 15.9 µM (inactive) | 5.38 µM (inactive) | 39.2 µM (inactive) | 7.38 µM (inactive) | – | 6.81 µM (inactive) | 5.9 µM (inactive) | 2.62 µM (inactive)
O=c1cc(O)c1=O | > 100 µM (inactive) | – | – | > 100 µM (inactive) | > 100 µM (inactive) | > 100 µM (inactive) | > 100 µM (inactive) | > 100 µM (inactive) | –
CSc1sc(C)cc1-c1nsc(=O)o1 | > 100 µM (inactive) | – | – | – | > 100 µM (inactive) | > 100 µM (inactive) | > 100 µM (inactive) | – | –
O=c1cccc(Cl)[nH]1 | – | – | – | > 100 µM (inactive) | > 100 µM (inactive) | > 100 µM (inactive) | – | > 100 µM (inactive) | –
COc1ccc(NC(=O)C(=O)NNC(=O)c2sc(NNC(C)=O)nc2C)c([N+](=O)[O-])c1 | 42.7 µM (inactive) | – | – | – | – | – | – | – | > 100 µM (inactive)
CCNC(=O)COc1ccc(Cl)c(C)c1 | > 100 µM (inactive) | > 100 µM (inactive) | – | – | – | – | – | – | > 100 µM (inactive)
O=C1C(Cl)C2(CC(/C=C/c3cccs3)=NN2c2cccc(S(=O)(=O)O)c2)N1c1nc2ccccc2s1 (stereo not drawn) | 64.6 µM (inactive) | – | – | 55.6 µM (inactive) | 21.6 µM (inactive) | 45.8 µM (inactive) | > 100 µM (inactive) | 13.6 µM (inactive) | –
COc1nc(N=P(c2ccccc2)(c2ccccc2)c2ccccc2)cc(=O)n1C | > 100 µM (inactive) | – | – | > 100 µM (inactive) | > 100 µM (inactive) | > 100 µM (inactive) | > 100 µM (inactive) | > 100 µM (inactive) | –
NCC(Cl)C(O)c1c[nH]c(N)n1 (stereo not drawn) | 3.46 µM (inactive) | 0.275 µM (active) | – | – | – | – | – | – | 2.05 µM (inactive)
COc1cc2cnc3c4cc(OC(C)C)c(OC)cc4ccc3c2cc1OC | – | > 100 µM (inactive) | – | – | – | – | – | – | –
Cn1ncc2ccc3[nH]c4ccccc4c(=O)c3c21 | 27.9 µM (inactive) | 58.5 µM (inactive) | 21.8 µM (inactive) | – | – | – | – | – | 28.6 µM (inactive)
O=C1/C(=C/C=C/c2ccccc2)CCC1CNc1ccccc1 (stereo not drawn) | 4.07 µM (inactive) | – | – | 32.1 µM (inactive) | > 93.3 µM (inactive) | 40.8 µM (inactive) | – | 26.2 µM (inactive) | –
COc1cc(C(C)c2cc3c(cc2OCCOCCOc2cc4c(cc2C(C)c2cc(OC)c(OC)c(OC)c2)OCO4)OCO3)cc(OC)c1OC (stereo not drawn) | > 10 µM (inactive) | > 10 µM (inactive) | > 10 µM (inactive) | – | – | – | – | – | > 10 µM (inactive)
O=C(/C(=C/c1ccc(Cl)cc1)c1ccccc1)c1ccccc1 | 19.9 µM (inactive) | 26.5 µM (inactive) | – | – | – | – | – | – | –
COc1ccc(/C=N\N2CC(=O)N3C4C=CC(CC4)N3C2=O)cc1 (stereo not drawn) | 53.1 µM (inactive) | – | – | > 100 µM (inactive) | > 100 µM (inactive) | > 100 µM (inactive) | > 100 µM (inactive) | 85.7 µM (inactive) | –
